Results: patent US8859653B2, “Rubber-steel cord composite” (Bridgestone Corporation, priority 2009, dated 2014)

assay: octanol/water partition coefficient (log P) by high performance liquid chromatography according to JIS Z 7260-117 (2006); assay type: physicochemical
Text: The combination which is the best mode described above can be confirmed from a numerical value of an octanol/water partition coefficient (log Pow, hereinafter abbreviated as “log P”) which is one of simple measures for evaluating a condensation property of chemicals. In the present invention, the smaller the value of log P is, the better the balance between the vulcanization speed, securing of the adhesion performance and the accumulativeness in human bodies is.
In the present invention (including examples and the like described later), the octanol/water partition coefficient (log P) described above can be measured by a high performance liquid chromatography according to JIS Z 7260-117 (2006), and it is defined by the following equation: log P=log(┌Co┘/┌Cw┘)
Co: concentration of a test substance in a 1-octanol layer
Cw: concentration of a test substance in an aqueous layer
Also, the octanol/water partition coefficients (log P) of the respective vulcanization accelerators obtained (production examples 1 to 6) were measured by a high performance liquid chromatography according to JIS Z 7260-117 (2006). A high performance liquid chromatography manufactured by Shimadzu Corporation was used.

SMILES | octanol/water partition coefficient (log P)
CCCCN(Sc1nc2ccccc2s1)C(C)(C)C [N-n-butyl-N-t-butylbenzothiazole-2-sulpheneamide] | 5.8
CCN(Sc1nc2ccccc2s1)C(C)(C)C [N-ethyl-N-t-butylbenzothiazole-2-sulpheneamide] | 4.9
CCCN(Sc1nc2ccccc2s1)C(C)(C)C [N-n-propyl-N-t-butylbenzothiazole-2-sulpheneamide] | 5.3
CC(C)N(Sc1nc2ccccc2s1)C(C)(C)C [N-i-propyl-N-t-butylbenzothiazole-2-sulpheneamide] | 5.1
CN(Sc1nc2ccccc2s1)C(C)(C)C [N-methyl-N-t-butylbenzothiazole-2-sulpheneamide] | 4.5
